Measured values published in patent US20080026996A1, “Selective Vpac2 Receptor Reptide Agonists” (ELI LILLY AND COMPANY, priority 2004, published 2008).
Where no end group is shown, it is not given here. [ ]: non-standard residue; d: D form. The star is where a group is joined. hArg = N=C(N)NCCCC[C@H](N)C(=O)O; Nle = CCCC[C@H](N)C(=O)O; Orn = NCCC[C@H](N)C(=O)O; Hexanoyl = CCCCCC(=O)*; Aib = CC(C)(N)C(=O)O

Columns and labels:
rat VPAC2 receptor = molecular target: T1, rat VPAC2 receptor (Rattus norvegicus, UniProt P35000); test: DiscoveRx in vitro potency, CHO-PO cells transiently transfected with rat VPAC 2 receptor DNA; format: cell-based; design: expressed in transfected cells; host or cells: CHO-PO, transient
T1 sequence (P35000 23-437): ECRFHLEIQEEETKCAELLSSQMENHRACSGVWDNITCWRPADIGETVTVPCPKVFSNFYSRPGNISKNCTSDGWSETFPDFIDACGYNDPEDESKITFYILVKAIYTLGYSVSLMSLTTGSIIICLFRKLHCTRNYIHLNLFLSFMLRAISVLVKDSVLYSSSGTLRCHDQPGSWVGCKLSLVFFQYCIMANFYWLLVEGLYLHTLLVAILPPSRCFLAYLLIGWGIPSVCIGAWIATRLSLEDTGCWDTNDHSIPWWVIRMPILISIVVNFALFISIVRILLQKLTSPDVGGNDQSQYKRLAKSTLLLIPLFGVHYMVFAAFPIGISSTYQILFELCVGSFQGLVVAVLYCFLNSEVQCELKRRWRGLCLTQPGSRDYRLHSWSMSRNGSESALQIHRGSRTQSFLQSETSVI
Description: Also, the cells are washed twice. […] The stimuli are present for 30 minutes. Then, the assay buffer is gently removed.

human VPAC2 [1] = molecular target: T2, human VPAC2 (Homo sapiens, UniProt P41587); test: Alpha screen cAMP in vitro potency, human VPAC2 receptor; format: cell-based; settings: cAMP generation; single result from two analyses performed in a single run; read-out: Human VPAC2 Receptor: Alpha Screen EC50
T2 construct: expressed in transfected cells
T2 sequence (P41587 24-438): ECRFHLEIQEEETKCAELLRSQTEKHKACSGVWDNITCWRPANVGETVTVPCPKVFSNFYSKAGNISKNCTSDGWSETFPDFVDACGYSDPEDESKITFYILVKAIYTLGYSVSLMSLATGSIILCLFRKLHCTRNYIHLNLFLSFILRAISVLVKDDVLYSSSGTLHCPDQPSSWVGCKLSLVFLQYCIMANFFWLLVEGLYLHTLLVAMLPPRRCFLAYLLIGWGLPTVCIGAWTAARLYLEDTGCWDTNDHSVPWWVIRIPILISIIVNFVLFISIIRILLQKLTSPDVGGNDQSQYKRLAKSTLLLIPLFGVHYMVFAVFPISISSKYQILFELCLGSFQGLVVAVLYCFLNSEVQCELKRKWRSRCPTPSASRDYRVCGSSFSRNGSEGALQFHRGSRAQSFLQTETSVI
Summary of the method: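 Dissociated cells, 50,000 per point in stimulation buffer, were incubated with stimuli and AlphaScreen acceptor beads for 60 min.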

[2] = Rat serum stability studies (remaining active peptide by DiscoveRx cAMP on CHO-VPAC2 cells); format: in vitro ADME
Summary of the method: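 EC50 from a DiscoveRx cAMP read-out on CHO-VPAC2 cells indexes how much peptide stays active after 18 h in rat serum at 37° C without aprotinin, against an aprotinin-protected 4° C aliquot.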

human VPAC2 [3] = molecular target: T2, human VPAC2; test: Filter binding assay, membranes of stable VPAC2 cell line, 125I-labeled VIP tracer (Table 2); settings: read-out: Human VPAC2 Receptor Binding
Summary of the method: (§1)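 Membranes 2.5 μg/well; tracer ~40000 cpm; buffer 25 mM HEPES pH 7.4, 0.5% protease-free BSA; 1 h incubation, shaking. Glass-fibre filtration (0.5% polyethyleneamine presoak, 0.2% BSA block), 3× HEPES wash, dry 1 h at 60° C, scintillation count.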

human VPAC1 = molecular target: T3, human VPAC1 (Homo sapiens, UniProt P32241); test: Filter binding assay, membranes of cells transiently transfected with human VPAC1, 125I-labeled VIP tracer (Table 2); design: expressed in transfected cells; settings: read-out: Human VPAC1 Receptor Binding
T3 sequence (P32241 31-457): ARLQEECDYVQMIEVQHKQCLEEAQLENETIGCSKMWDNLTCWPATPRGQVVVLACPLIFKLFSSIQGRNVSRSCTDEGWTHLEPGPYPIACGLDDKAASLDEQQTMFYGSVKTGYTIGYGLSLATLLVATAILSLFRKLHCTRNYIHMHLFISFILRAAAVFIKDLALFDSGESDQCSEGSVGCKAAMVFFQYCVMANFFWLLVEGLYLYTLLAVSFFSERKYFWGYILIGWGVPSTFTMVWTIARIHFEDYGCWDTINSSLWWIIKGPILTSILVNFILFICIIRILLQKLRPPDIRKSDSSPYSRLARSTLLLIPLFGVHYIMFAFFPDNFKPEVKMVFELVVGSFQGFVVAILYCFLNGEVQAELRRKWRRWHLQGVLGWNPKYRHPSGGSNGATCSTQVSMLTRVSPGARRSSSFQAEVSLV
Summary of the method: as §1

human PAC1 = molecular target: T4, human PAC1 (Homo sapiens, UniProt P41586); test: Filter binding assay, membranes of cells transiently transfected with human PAC1, 125I-labeled PACAP-27 tracer (Table 2); design: expressed in transfected cells; settings: read-out: Human PAC1 Receptor Binding
T4 sequence (P41586 21-468): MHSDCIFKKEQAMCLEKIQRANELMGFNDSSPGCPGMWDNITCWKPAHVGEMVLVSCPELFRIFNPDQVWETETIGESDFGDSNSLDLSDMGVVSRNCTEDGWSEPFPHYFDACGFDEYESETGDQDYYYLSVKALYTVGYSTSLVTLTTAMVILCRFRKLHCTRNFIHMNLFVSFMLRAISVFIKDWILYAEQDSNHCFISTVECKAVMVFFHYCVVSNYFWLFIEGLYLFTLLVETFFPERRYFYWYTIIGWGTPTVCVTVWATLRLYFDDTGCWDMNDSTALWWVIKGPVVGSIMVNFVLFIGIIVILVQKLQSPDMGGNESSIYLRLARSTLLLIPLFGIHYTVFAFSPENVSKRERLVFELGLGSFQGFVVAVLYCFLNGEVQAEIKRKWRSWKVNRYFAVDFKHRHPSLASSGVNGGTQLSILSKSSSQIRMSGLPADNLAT
Summary of the method: as §1

| Compound | EC50 (rat VPAC2 receptor) [nM] | EC50 (human VPAC2 [1]) [nM] | Rat Serum Stability (estimated purity in % after 18 hours) [2] [%] | IC50 (human VPAC2 [3]) [nM] | IC50 (human VPAC1) [nM] | IC50 (human PAC1) [nM] | Rat Serum Stability (Estimated purity in % after 72 hours) [2] [%] |
| --- | --- | --- | --- | --- | --- | --- | --- |
| CCCCCC(=O)N[C@@H](Cc1c[nH]cn1)C(=O)N[C@@H](CO)C(=O)N[C@@H](CC(=O)O)C(=O)N[C@@H](C)C(=O)N[C@H](C(=O)N[C@@H](Cc1ccccc1)C(=O)N[C@H](C(=O)N[C@@H](CC(=O)O)C(=O)N[C@@H](CC(N)=O)C(=O)N[C@@H](Cc1ccc(O)cc1)C(=O)N[C@H](C(=O)N[C@@H](CCCNC(=N)N)C(=O)N[C@@H](CC(C)C)C(=O)N[C@@H](CCCNC(=N)N)C(=O)N[C@@H](CCCCN)C(=O)N[C@@H](CCC(N)=O)C(=O)N[C@H](C(=O)N[C@@H](C)C(=O)N[C@@H](C)C(=O)NC(C)(C)C(=O)N[C@@H](CCCCN)C(=O)N[C@@H](Cc1ccc(O)cc1)C(=O)N[C@@H](CC(C)C)C(=O)N[C@@H](CCC(N)=O)C(=O)N[C@@H](CO)C(=O)N[C@H](C(=O)N[C@@H](CCCCN)C(=O)N[C@@H](CC(N)=O)C(=O)N[C@@H](CCCCN)C(=O)N[C@@H](CCCNC(=N)N)C(=O)N[C@@H](Cc1ccc(O)cc1)C(=O)NCC(=O)NCC(=O)N1CCC[C@H]1C(=O)N[C@@H](CO)C(=O)N[C@@H](CO)C(=O)NCC(=O)N[C@@H](C)C(=O)N1CCC[C@H]1C(=O)N1CCC[C@H]1C(=O)N1CCC[C@H]1C(=O)N[C@@H](CO)C(=O)O)[C@@H](C)CC)C(C)C)[C@@H](C)O)[C@@H](C)O)C(C)C [Agonist P169] | 0.07 | 0.14 | 0.40 | 0.26 | 240 | 482 |  |
| CCCCCC(=O)N[C@@H](Cc1c[nH]cn1)C(=O)N[C@@H](CO)C(=O)N[C@@H](CC(=O)O)C(=O)N[C@@H](C)C(=O)N[C@H](C(=O)N[C@@H](Cc1ccccc1)C(=O)N[C@H](C(=O)N[C@@H](CC(=O)O)C(=O)N[C@@H](CC(N)=O)C(=O)N[C@@H](Cc1ccc(O)cc1)C(=O)N[C@H](C(=O)N[C@@H](CCCN)C(=O)N[C@@H](CC(C)C)C(=O)N[C@@H](CCCNC(=N)N)C(=O)NC(C)(C)C(=O)N[C@@H](CCC(N)=O)C(=O)N[C@H](C(=O)N[C@@H](C)C(=O)N[C@@H](C)C(=O)NC(C)(C)C(=O)N[C@@H](CCCCN)C(=O)N[C@@H](Cc1ccc(O)cc1)C(=O)N[C@@H](CC(C)C)C(=O)N[C@@H](CCC(N)=O)C(=O)N[C@@H](CO)C(=O)N[C@H](C(=O)N[C@@H](CCCN)C(=O)N[C@@H](CC(N)=O)C(=O)N[C@@H](CCCN)C(=O)NCC(=O)NCC(=O)N1CCC[C@H]1C(=O)N[C@@H](CO)C(=O)N[C@@H](CO)C(=O)NCC(=O)N[C@@H](C)C(=O)N1CCC[C@H]1C(=O)N1CCC[C@H]1C(=O)N1CCC[C@H]1C(=O)N[C@@H](CO)C(=O)O)[C@@H](C)CC)C(C)C)[C@@H](C)O)[C@@H](C)O)C(C)C [Agonist P326] | 0.09 | 0.21 | 90.10 | 0.33 | > 3000 | > 25000 | 49.6 |
| Hexanoyl-HSDAVFTDNYTRLK[Aib]QVAA[Aib]KYLQSIKNKRYGGPSSGAPPPS [Agonist P318] | 0.09 | 0.32 | 29.95 | 0.63 | > 3000 | > 25000 |  |
| Hexanoyl-HSDAVFTDNYTRLRKQVAAK[Aib]YLQSIKNKRYGGPSSGAPPPS [Agonist P170] | 0.15 | 0.18 | 0.31 | 0.34 | 275 | 200 |  |
| Hexanoyl-HSDAVFTDNYTRLRKQVAAQKYLQSIKNKRYGGPSSGAPPPS [Agonist P150] | 0.1 | 0.18 | 0.21 | 0.25 | 444 | 916 |  |
| Hexanoyl-HSDAVFTDNYTRLRQQVAAKKYLQSIKNKRYGGPSSGAPPPS [Agonist P177] | 0.1 | 0.21 | 0.49 | 0.7 | 128 | 276 |  |
| Hexanoyl-HSDAVFTDNYTRLR[Aib]QLAA[Aib]KYLQSIKNKRYGGPSSGAPPPS [Agonist P291] | 0.06 | 0.36 | 28.09 | 0.45 | > 3000 | > 25000 |  |
| Hexanoyl-HSDAVFTDNYTRLR[Aib]QVAAKKYLQSIKNKRYGGPSSGAPPPS [Agonist P168] | 0.05 | 0.27 | 10.47 | 0.21 | 234 | 538 |  |
| Hexanoyl-HSDAVFTDNYTRLR[Aib]QVAA[Aib][Orn]YLQSIKNKRYGGPSSGAPPPS [Agonist P342] | 0.06 | 0.21 | 25.96 | 0.35 | > 3000 |  |  |
| Hexanoyl-HSDAVFTDNYTRLR[Aib]Q[Nle]AA[Aib]KYLQSIKNKRYGGPSSGAPPPS [Agonist P325] | 0.04 | 0.24 | 13.13 | 0.4 | > 3000 | > 25000 |  |
| Hexanoyl-HSDAVFTDNYTRL[hArg]KQVAAKKYLQSIKNKRYGGPSSGAPPPS [Agonist P305] | 0.04 | 0.17 | 0.23 | 0.17 | 268 | 171 |  |
| Hexanoyl-HSDAVFTDNYTRL[hArg][Orn]QVAAKKYLQSIKNKRYGGPSSGAPPPS [Agonist P308] | 0.09 | 0.26 | 0.97 | 0.34 | 262 |  |  |
| Hexanoyl-HSDAVFTDNYTR[Aib]R[Aib]QVAA[Aib]KYLQSIKNKRYGGPSSGAPPPS [Agonist P346] | 0.06 | 0.23 | 43.44 | 0.25 | > 3000 |  | 27.6 |
| Hexanoyl-HSDAVFTDNYT[Orn]LR[Aib]QVAA[Aib]KYLQSIKNKRYGGPSSGAPPPS [Agonist P344] | 0.06 | 0.13 | 50.19 | 0.25 | > 3000 |  | 43.0 |
| Hexanoyl-HSDAVFTDQYTRLR[Aib]QVAA[Aib]KYLQSIKQKRYGGPSSGAPPPS [Agonist P315] | 0.04 | 0.19 | 24.00 | 0.29 | > 3000 |  |  |
